Reference: ChEMBL document CHEMBL5230155, “Recent contributions of quinolines to antimalarial and anticancer drug discovery research” (Eur J Med Chem, 2021)
Converted amounts (≈) assume the structure as drawn.

Key:
[1] = molecular target: Cathepsin B (Homo sapiens) (UniProt P07858); assay: Inhibition of human cathepsin B exopeptidase activity at 50 uM relative to control
[2] = system: Plasmodium falciparum
Description: (§1) Antimalarial activity against CQ-sensitive Plasmodium falciparum NF54

[3] = system: HepG2; assay: Cytotoxicity against human HepG2 cells; type: functional, cell-based; conditions: Homo sapiens, HepG2
[4] = system: HCT-116; assay: Cytotoxicity against human HCT-116 cells; type: functional, cell-based
[5] = molecular target: Lysine-specific demethylase 6B (Homo sapiens) (UniProt O15054); assay: Inhibition of JMJD3 (unknown origin) at 25 uM relative to control
[6] = system: Plasmodium falciparum; assay: microbe, parasite or virus in culture; conditions: NF54
Description: as §1

[7] = system: Plasmodium falciparum; assay: Antimalarial activity against CQ-sensitive Plasmodium falciparum 3D7; type: functional, organism-based
[8] = system: Plasmodium falciparum; assay: Antimalarial activity against CQ-resistant Plasmodium falciparum W2; type: functional, organism-based
[9] = system: HeLa; assay: Antiproliferative activity against human HeLa cells; type: functional, cell-based
[10] = system: MCF7; assay: Antiproliferative activity against human MCF7 cells; type: functional, cell-based; conditions: Homo sapiens, MCF7
[11] = system: DLD-1; assay: Antiproliferative activity against human DLD-1 cells; type: functional, cell-based
[12] = Binding affinity to human nRNP
[13] = molecular target: Hepatocyte growth factor receptor (Homo sapiens, UniProt P08581); assay: Inhibition of c-Met (unknown origin)
[14] = system: PC-3; assay: Antiproliferative activity against human PC-3 cells; type: functional, cell-based
[15] = system: Plasmodium falciparum; assay: Antimalarial activity against CQ-sensitive Plasmodium falciparum D6; type: functional, organism-based
[16] = system: Plasmodium falciparum; assay: Antimalarial activity against CQ-resistant Plasmodium falciparum K1; type: functional, organism-based
[17] = system: Plasmodium falciparum; assay: Antimalarial activity against multidrug resistant Plasmodium falciparum Dd2; type: functional, organism-based
[18] = system: Plasmodium falciparum; assay: microbe, parasite or virus in culture
Description: Antimalarial activity against Plasmodium falciparum

Sequence of Hepatocyte growth factor receptor (P08581 whole entry): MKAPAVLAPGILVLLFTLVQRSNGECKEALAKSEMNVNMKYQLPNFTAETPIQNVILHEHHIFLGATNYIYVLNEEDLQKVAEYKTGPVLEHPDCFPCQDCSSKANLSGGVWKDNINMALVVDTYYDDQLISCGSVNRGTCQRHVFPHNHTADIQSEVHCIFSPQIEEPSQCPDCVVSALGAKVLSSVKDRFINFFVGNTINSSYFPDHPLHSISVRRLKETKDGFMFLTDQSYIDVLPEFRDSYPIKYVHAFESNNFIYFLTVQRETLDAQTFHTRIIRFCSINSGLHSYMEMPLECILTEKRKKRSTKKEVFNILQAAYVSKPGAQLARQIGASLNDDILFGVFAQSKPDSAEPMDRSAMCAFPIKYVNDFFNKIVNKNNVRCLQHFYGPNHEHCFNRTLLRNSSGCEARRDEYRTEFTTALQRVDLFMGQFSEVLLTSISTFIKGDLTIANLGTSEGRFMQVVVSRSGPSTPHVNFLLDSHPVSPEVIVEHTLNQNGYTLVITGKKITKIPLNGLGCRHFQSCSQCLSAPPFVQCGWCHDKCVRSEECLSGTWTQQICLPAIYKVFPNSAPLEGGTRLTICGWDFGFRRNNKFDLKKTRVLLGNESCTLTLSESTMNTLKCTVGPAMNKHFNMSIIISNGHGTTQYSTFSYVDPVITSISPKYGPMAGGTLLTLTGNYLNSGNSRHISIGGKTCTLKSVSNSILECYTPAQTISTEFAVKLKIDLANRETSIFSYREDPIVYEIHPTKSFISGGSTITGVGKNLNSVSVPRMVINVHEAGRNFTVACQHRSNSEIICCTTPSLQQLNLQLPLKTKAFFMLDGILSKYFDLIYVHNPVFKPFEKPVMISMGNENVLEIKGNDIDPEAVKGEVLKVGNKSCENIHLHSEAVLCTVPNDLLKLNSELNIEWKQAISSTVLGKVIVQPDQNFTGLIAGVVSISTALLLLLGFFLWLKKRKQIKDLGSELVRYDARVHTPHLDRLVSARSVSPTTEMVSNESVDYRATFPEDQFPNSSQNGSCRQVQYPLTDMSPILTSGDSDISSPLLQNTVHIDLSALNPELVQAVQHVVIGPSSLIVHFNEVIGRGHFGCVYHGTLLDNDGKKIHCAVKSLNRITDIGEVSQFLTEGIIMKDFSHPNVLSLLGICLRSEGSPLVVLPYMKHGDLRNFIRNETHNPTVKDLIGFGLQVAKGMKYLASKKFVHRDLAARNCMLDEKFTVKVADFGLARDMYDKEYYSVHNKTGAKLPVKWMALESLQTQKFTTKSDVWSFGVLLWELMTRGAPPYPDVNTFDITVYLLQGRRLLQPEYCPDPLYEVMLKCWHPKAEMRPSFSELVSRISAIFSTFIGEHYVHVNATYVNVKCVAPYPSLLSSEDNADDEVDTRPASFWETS
Sequence of Lysine-specific demethylase 6B (Homo sapiens) (O15054 whole entry): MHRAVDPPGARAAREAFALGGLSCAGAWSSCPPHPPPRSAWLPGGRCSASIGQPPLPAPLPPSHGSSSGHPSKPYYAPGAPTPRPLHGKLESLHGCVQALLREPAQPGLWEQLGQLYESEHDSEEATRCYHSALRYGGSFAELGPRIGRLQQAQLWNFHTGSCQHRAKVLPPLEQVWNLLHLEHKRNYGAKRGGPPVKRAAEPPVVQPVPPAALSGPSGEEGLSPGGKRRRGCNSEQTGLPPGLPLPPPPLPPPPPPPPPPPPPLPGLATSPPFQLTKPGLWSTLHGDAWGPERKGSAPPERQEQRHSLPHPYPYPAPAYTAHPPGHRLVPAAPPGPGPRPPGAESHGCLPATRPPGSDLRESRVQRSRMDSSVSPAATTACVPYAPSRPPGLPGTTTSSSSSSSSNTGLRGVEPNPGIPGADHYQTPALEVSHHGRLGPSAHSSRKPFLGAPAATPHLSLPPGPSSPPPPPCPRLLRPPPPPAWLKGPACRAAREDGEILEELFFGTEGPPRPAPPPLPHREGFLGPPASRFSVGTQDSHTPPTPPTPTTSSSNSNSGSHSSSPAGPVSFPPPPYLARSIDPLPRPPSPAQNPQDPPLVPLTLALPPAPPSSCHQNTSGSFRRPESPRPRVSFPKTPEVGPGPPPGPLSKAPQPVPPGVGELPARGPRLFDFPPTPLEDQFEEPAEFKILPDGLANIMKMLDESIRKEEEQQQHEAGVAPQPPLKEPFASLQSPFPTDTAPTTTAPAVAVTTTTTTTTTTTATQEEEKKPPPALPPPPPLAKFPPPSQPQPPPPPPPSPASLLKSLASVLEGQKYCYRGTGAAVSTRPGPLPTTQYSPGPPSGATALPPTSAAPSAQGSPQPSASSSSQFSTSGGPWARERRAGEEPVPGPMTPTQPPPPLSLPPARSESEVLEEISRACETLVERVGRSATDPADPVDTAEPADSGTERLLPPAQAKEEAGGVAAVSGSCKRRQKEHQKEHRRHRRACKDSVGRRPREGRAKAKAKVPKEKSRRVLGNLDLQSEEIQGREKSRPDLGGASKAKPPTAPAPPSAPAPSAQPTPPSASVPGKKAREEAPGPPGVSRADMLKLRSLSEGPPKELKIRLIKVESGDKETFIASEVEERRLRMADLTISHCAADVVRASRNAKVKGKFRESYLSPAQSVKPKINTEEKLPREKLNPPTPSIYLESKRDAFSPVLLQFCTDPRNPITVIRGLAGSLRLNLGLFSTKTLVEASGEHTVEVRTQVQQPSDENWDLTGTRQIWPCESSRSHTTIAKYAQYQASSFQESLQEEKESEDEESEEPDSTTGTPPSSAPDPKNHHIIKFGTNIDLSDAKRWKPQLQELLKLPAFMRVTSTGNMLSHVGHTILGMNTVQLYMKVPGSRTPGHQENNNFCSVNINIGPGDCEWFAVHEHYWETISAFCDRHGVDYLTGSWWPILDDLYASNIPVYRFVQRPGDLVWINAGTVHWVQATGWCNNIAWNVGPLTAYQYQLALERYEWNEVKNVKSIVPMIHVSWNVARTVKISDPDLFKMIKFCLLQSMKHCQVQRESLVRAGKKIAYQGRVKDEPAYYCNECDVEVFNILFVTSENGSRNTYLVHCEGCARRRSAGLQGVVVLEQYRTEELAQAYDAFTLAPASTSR

Structure (SMILES): O=C(NCc1ccccc1)c1cc([N+](=O)[O-])c2cccnc2c1O
- inhibition [1]: 19.4%

Structure (SMILES): Clc1ccc2c(N3CC(CN4CCOCC4)N=N3)ccnc2c1 (centres undefined) [listing 1 of 2 here]
- IC50 [2]: 206 nM

Structure (SMILES): CCCCNC(=O)c1cc([N+](=O)[O-])c2cccnc2c1O
- inhibition [1]: 19.4%

Structure (SMILES): CN(C)C/C=C/C(=O)Nc1cc2c(Nc3ccc(F)c(Cl)c3)ncnc2cc1O[C@H]1CCOC1 [AFATINIB]
- IC50 [3]: 5.3 µg/mL
- IC50 [4]: 5.3 µg/mL (≈ 10.9 µM)

Structure (SMILES): COc1ncc(-c2cnc3c(C(=O)O)ccc(C(=O)O)c3c2)c(OC)n1
- inhibition [5]: 90%

Structure (SMILES): COc1ccc(C2CN3CCC2CC3[C@H](O)c2ccnc3ccc(OC)cc23)cc1 (mixture of isomers)
- IC50 [6]: 5 nM

Structure (SMILES): CN(C)CCNCc1ccc(-c2cc(-c3ccc(CNCCN(C)C)cc3)c3ccccc3n2)cc1
- IC50 [7]: 32 nM
- IC50 [8]: 340 nM
- IC50 [3]: 3100 nM

Structure (SMILES): O=C(NCCO)c1cc([N+](=O)[O-])c2cccnc2c1O
- inhibition [1]: 19.4%

Structure (SMILES): COc1cc(-c2cnc3c(C(=O)O)ccc(C(=O)O)c3c2)ccc1F
- inhibition [5]: 0%

Structure (SMILES): COc1ccc2nc(Cl)c(C3CC(c4ccc(C)cc4)=NN3c3nc(C)c(/N=N/c4ccccc4)s3)cc2c1 (centres undefined)
- IC50 [9]: 38 nM
- IC50 [10]: 38 nM
- IC50 [11]: 38 nM

Structure (SMILES): COc1ccc(C(=O)/C=C/c2cc(N3CCOCC3)c3cc(OC)ccc3n2)cc1
- Kd [12]: 4600 nM

Structure (SMILES): COCCCNC(=O)c1cc([N+](=O)[O-])c2cccnc2c1O
- inhibition [1]: 19.4%

Structure (SMILES): COc1ccc2nc(Cl)c(C3CC(c4ccc(C)cc4)=NN3c3nc(-c4ccc(Cl)cc4)cs3)cc2c1 (centres undefined)
- IC50 [9]: 38 nM
- IC50 [10]: 38 nM
- IC50 [11]: 38 nM

Structure (SMILES): COc1ccc2nc(O)c(/C=C/C(=O)c3ccc(C)cc3)cc2c1
- IC50 [9]: 38 nM
- IC50 [10]: 38 nM
- IC50 [11]: 38 nM

Structure (SMILES): COc1cc2nccc(Oc3ccc(NC(=O)C4(C(=O)Nc5ccc(F)cc5)CC4)cc3)c2cc1OC(=O)c1ccc([N+](=O)[O-])cc1
- IC50 [13]: 19 nM

Structure (SMILES): CC(O)(CS(=O)(=O)c1ccc(F)cc1)C(=O)Nc1ccc(C#N)c(C(F)(F)F)c1 (centres undefined) [BICALUTAMIDE]
- IC50 [14]: 1300 nM

Structure (SMILES): O=C(/C=C/c1cc(N2CCOCC2)c2cc([N+](=O)[O-])ccc2n1)c1ccc(O)cc1
- Kd [12]: 4600 nM

Structure (SMILES): COc1ccc(F)cc1-c1cnc2c(C(=O)O)ccc(C(=O)O)c2c1
- inhibition [5]: 0%

Structure (SMILES): C=C[C@@H]1CN2CC[C@@H]1C[C@@H]2[C@@H](O)c1ccnc2ccc(OC)cc12
- IC50 [6]: 122 nM

Structure (SMILES): Cc1c(Cl)ccc2cc(/C=C/C(=O)c3csc(Cl)c3)c(Cl)nc12
- IC50 [8]: < 50 nM
- IC50 [15]: < 50 nM

Structure (SMILES): CCCCCCCOc1c(OC)cc(NC(C)CCCN)c2nc(C(C)(C)C)ccc12 (centres undefined)
- IC50 [8]: 0.022 µg/mL
- IC50 [15]: 0.02 µg/mL

Structure (SMILES): N=C(N=C(N)N)SCCCCNc1ccnc2cc(Cl)ccc12
- IC50 [8]: 430 nM
- IC50 [15]: 610 nM

Structure (SMILES): NS(=O)(=O)c1ccc(-c2cnc3c(C(=O)O)ccc(C(=O)O)c3c2)cc1
- inhibition [5]: 0%

Structure (SMILES): CC(C)NC(=O)c1cc([N+](=O)[O-])c2cccnc2c1O
- inhibition [1]: 19.4%

Structure (SMILES): Cc1cccc2cc(CNC3CCOC(C)(C)C3)c(N3CCCC3)nc12 (centres undefined)
- IC50 [16]: 173 nM
- IC50 [6]: 22 nM

Structure (SMILES): [2H]c1ccc2cc(C(F)(F)c3nnc4ccc(-c5cnn(C)c5)nn34)ccc2n1
- IC50 [13]: 2.6 nM

Structure (SMILES): Cn1cc(-c2ccc3nnc(C(F)(F)c4ccc5ncccc5c4)n3n2)cn1 [JNJ-38877605]
- IC50 [13]: 1.7 nM

Structure (SMILES): COc1ccc(C(=O)/C=C/c2cc(N3CCOCC3)c3ccccc3n2)cc1
- Kd [12]: 4600 nM

Structure (SMILES): O=C(NC1CCCCC1)c1cc([N+](=O)[O-])c2cccnc2c1O
- inhibition [1]: 19.4%

Structure (SMILES): O=C(/C=C/c1cc(N2CCOCC2)c2cc(O)ccc2n1)c1ccc(Cl)cc1
- Kd [12]: 20100 nM

Structure (SMILES): CCCCCCCCOc1c(OC)cc(NC(C)CCCN)c2nc(C(C)(C)C)ccc12 (centres undefined)
- IC50 [8]: 0.022 µg/mL
- IC50 [15]: 0.02 µg/mL

Structure (SMILES): Clc1ccc2c(N3CCN(CCCN4CCN(c5ccnc6cc(Cl)ccc56)CC4)CC3)ccnc2c1 [PIPERAQUINE]
- IC50 [17]: 1.5 nM
- IC50 [15]: 0.7 nM

Structure (SMILES): O=C(/C=C/c1cc(N2CCOCC2)c2ccccc2n1)c1ccc(O)cc1
- Kd [12]: 4600 nM

Structure (SMILES): Clc1ccc2c(N3CC(CN4CCCC4)N=N3)ccnc2c1 (centres undefined) [listing 1 of 2 here]
- IC50 [2]: 206 nM

Structure (SMILES): COc1ccc2nc(Cl)c(C3CC(c4ccc(C)cc4)=NN3c3nc(-c4ccc(C)cc4)cs3)cc2c1 (centres undefined)
- IC50 [9]: 38 nM
- IC50 [10]: 38 nM
- IC50 [11]: 38 nM

Structure (SMILES): O=C(N/N=C/c1cc(O)ccc1O)c1ccc(Nc2ccnc3ccccc23)cc1
- IC50 [3]: 27300 nM

Structure (SMILES): N#CN=C(NCCCCCCOc1ccc(Cl)cc1)Nc1ccncc1 [CHS-828]
- IC50 [9]: 40 nM

Structure (SMILES): Clc1ccc2c(N3CC(CN4CCOCC4)N=N3)ccnc2c1 (centres undefined) [listing 2 of 2 here]
- IC50 [2]: 4560 nM

Structure (SMILES): Clc1ccc2c(NCCn3cncc3C3CCCC3)ccnc2c1
- IC50 [7]: 79 nM
- IC50 [16]: 290 nM

Structure (SMILES): C#Cc1ccc(-c2cn(CCNc3ccnc4cc(Cl)ccc34)nn2)cc1F
- IC50 [16]: 160 nM
- IC50 [6]: 140 nM

Structure (SMILES): CCONC(=O)c1sc(N2N=C(c3ccc(C)cc3)CC2c2cc3cc(OC)ccc3nc2Cl)nc1C (centres undefined)
- IC50 [9]: 38 nM
- IC50 [10]: 38 nM
- IC50 [11]: 38 nM

Structure (SMILES): Clc1ccc2c(N3CC(CN4CCCCC4)N=N3)ccnc2c1 (centres undefined) [listing 1 of 2 here]
- IC50 [2]: 4560 nM

Structure (SMILES): CCCCCCOc1c(OC)cc(NC(C)CCCN)c2nc(C(C)(C)C)ccc12 (centres undefined)
- IC50 [8]: 0.022 µg/mL
- IC50 [15]: 0.02 µg/mL

Structure (SMILES): COc1cc2nccc(Oc3ccc(NC(=O)C4(C(=O)Nc5ccc(F)cc5)CC4)cc3)c2cc1O
- IC50 [13]: 19 nM

Structure (SMILES): Cc1c(Cl)ccc2cc(/C=C/C(=O)c3ccccc3Br)c(Cl)nc12
- IC50 [8]: < 50 nM
- IC50 [15]: < 50 nM

Structure (SMILES): COc1ccc2nccc([C@@H](O)C3CC4CCN3CC4c3ccc(C(F)(F)F)cc3)c2c1 (mixture of isomers)
- IC50 [6]: 5 nM

Structure (SMILES): C#Cc1ccc(-c2cn(CCNc3ccnc4cc(Cl)ccc34)nn2)cc1
- IC50 [16]: 160 nM
- IC50 [6]: 140 nM

Structure (SMILES): CC1(C)CC(NCc2cc3cccc(Cl)c3nc2N2CCCC2)CCO1 (centres undefined)
- IC50 [6]: 24 nM

Structure (SMILES): CNC(=O)c1sc(N2N=C(c3ccc(C)cc3)CC2c2cc3cc(OC)ccc3nc2Cl)nc1C (centres undefined)
- IC50 [9]: 38 nM
- IC50 [10]: 38 nM
- IC50 [11]: 38 nM

Structure (SMILES): CCCCCOc1c(OC)cc(NC(C)CCCN)c2nc(C(C)(C)C)ccc12 (centres undefined)
- IC50 [8]: 0.022 µg/mL
- IC50 [15]: 0.02 µg/mL

Structure (SMILES): FC(F)(F)c1ccc(-c2cncn2CCNc2ccnc3cc(Cl)ccc23)cc1
- IC50 [7]: 79 nM
- IC50 [16]: 290 nM

Structure (SMILES): COc1ccc(C(=O)/C=C/c2cc(N3CCOCC3)c3cc(F)ccc3n2)cc1
- Kd [12]: 4600 nM

Structure (SMILES): Clc1ccc2c(N3CC(CN4CCCC4)N=N3)ccnc2c1 (centres undefined) [listing 2 of 2 here]
- IC50 [2]: 4560 nM

Structure (SMILES): CC(C)c1ccc(-c2cncn2CCNc2ccnc3cc(Cl)ccc23)cc1
- IC50 [7]: 79 nM
- IC50 [16]: 290 nM

Structure (SMILES): CCOC(=O)C(C#N)C(=O)c1cc(/C=C/c2ccc(N(C)C)cc2)nc2ccc(Br)cc12 (centres undefined)
- IC50 [3]: 7.7 µg/mL
- IC50 [4]: 7.7 µg/mL (≈ 15.6 µM)

Structure (SMILES): CN(C)c1ccc(/C=C/c2cc(-c3nnc(N)s3)c3cc(Br)ccc3n2)cc1
- IC50 [3]: 7.7 µg/mL
- IC50 [4]: 7.7 µg/mL (≈ 17 µM)

Structure (SMILES): C#Cc1ccc(-c2cn(CCNc3ccnc4cc(Cl)ccc34)nn2)c(F)c1
- IC50 [16]: 160 nM
- IC50 [6]: 140 nM

Structure (SMILES): Cc1ccsc1-c1cncn1CCNc1ccnc2cc(Cl)ccc12
- IC50 [7]: 79 nM
- IC50 [16]: 290 nM

Structure (SMILES): Cc1ccc2nc(/C=C/c3ccc(N(C)C)cc3)cc(C(=O)O)c2c1
- IC50 [3]: 7.7 µg/mL
- IC50 [4]: 7.7 µg/mL (≈ 23.2 µM)

Structure (SMILES): COc1cc(-c2cnc3c(C(=O)O)ccc(C(=O)O)c3c2)c(OC)nn1
- inhibition [5]: 0%

Structure (SMILES): CN(C)c1ccc(/C=C/c2cc(C(=O)O)c3cc(Br)ccc3n2)cc1
- IC50 [3]: 7.7 µg/mL
- IC50 [4]: 7.7 µg/mL (≈ 19.4 µM)

Structure (SMILES): COc1cc2nccc(Oc3ccc(NC(=O)C4(C(=O)Nc5c(F)cc(F)cc5F)CC4)cc3)c2cc1Oc1ccc(N)cn1
- IC50 [13]: 19 nM

Structure (SMILES): CC(C)(C)c1cncn1CCNc1ccnc2cc(Cl)ccc12
- IC50 [7]: 79 nM
- IC50 [16]: 290 nM

Structure (SMILES): Clc1ccc2c(N3CC(CN4CCCCC4)N=N3)ccnc2c1 (centres undefined) [listing 2 of 2 here]
- IC50 [2]: 206 nM

Structure (SMILES): C=C[C@H]1CN2CC[C@H]1C[C@H]2[C@H](O)c1ccnc2ccc(OC)cc12 [QUININE]
- IC50 [6]: 22 nM
- IC50 [18]: 0.26 µg/mL (≈ 0.801 µM)

Structure (SMILES): O=C(O)c1ccc(-c2cnc3c(C(=O)O)ccc(C(=O)O)c3c2)s1
- inhibition [5]: 0%

Structure (SMILES): O=C(NCc1ccc(F)cc1)c1cc([N+](=O)[O-])c2cccnc2c1O
- inhibition [1]: 19.4%
